Where no end group is shown, it is not given here.
System: Sprague-Dawley rats
Test: Delayed alternation test (T-maze) for cognitive function improvement
Format: in vivo, rat
Conditions: oral, 100 mg/ml solution; for effect of improving cognitive function and memory in the early stage of administration: delay of 5 seconds, early stage of 9-day training; for effect of improving cognitive function and memory (T-maze performance): delay of 5 seconds between trials, 9 days training
Experimental: Experimental animals were white male Sprague-Dawley rats (140 to 180 g, Daehan Biolink Co., Ltd.). These rats were housed in cages (4 rats per cage) in a constant environment (temperature: 25±1° C., and relative humidity: 60±10%) for one week and allowed to access water ad libitum. At this time, the feed was fed in a limited manner so that 80% of the body weight was kept. In this experiment, a total of 50 rats were used. The rats were adapted to the maze for 5 minutes a day for 3 days before training.
In the first trial, the animals were adapted to the start arm. The first trial is a “forced-choice trial”, in which one arm was blocked with the door and when the animal entered the other arm, the rear was blocked with the door. The animal was considered as entering the arm when all four paws passed through the entrance. The animal was allowed to eat feed in the corresponding arm for 60 seconds. The next trials were “free-choice trials”, in which the animal was free to choose the direction of the arm (left or right) starting from the start arm. The animal was made to be able to eat food as a reward only when it entered the arm that entered in the previous trial and the opposite arm.
The trials were performed with delays of 5 seconds and 20 seconds, and the cut-off time of each trial was set to 60 seconds. The number of times the animal entered the forced-choice arm and the time taken to enter the arm were measured. The same procedure was performed for 9 days with 10 trials per day, followed by assessment.
The silk peptides NF1, NF2 and TF1 to TF9 were prepared into solutions, each containing 100 mg/ml of each peptide, and were administered orally. All the samples were dissolved in distilled water and administered orally.

Substance: Ala-Gly-Gly-Ala (AGGA; printed: Ala-Gly-Gly-Ala) [Peptide P4-1]
- effect of improving cognitive function and memory in the early stage of administration: significantly increased effect of improving cognitive function and memory in the early stage of administration

Substance: Ile-Gly-Ala-Tyr (IGAY; printed: Ile-Gly-Ala-Tyr) [Peptide P2-3]
- effect of improving cognitive function and memory (T-maze performance): relatively low

Substance: Ile-Gly-Gln-Gly (IGQG; printed: Ile-Gly-Gln-Gly) [Peptide P2-4]
- effect of improving cognitive function and memory (T-maze performance): relatively low

Substance: Ile-Gly-Tyr-Val (IGYV; printed: Ile-Gly-Tyr-Val) [Peptide P2-1]
- effect of improving cognitive function and memory (T-maze performance): relatively low

Substance: Ile-Gly-Val-Ala (IGVA; printed: Ile-Gly-Val-Ala) [Peptide P2-2]
- effect of improving cognitive function and memory (T-maze performance): relatively better

Substance: Ile-Gly-Val-Ala-Gly (IGVAG; printed: Ile-Gly-Val-Ala-Gly) [Peptide F3]
- effect of improving cognitive function and memory (T-maze performance): high effect of improving cognitive function and memory, compared to P2-2
- effect of improving cognitive function and memory in the early stage of administration: high activity of improving cognitive function and memory in an early stage, compared to P2-2

Substance: Ile-Gly-Val-Ala-Thr (IGVAT; printed: Ile-Gly-Val-Ala-Thr) [Peptide F1]
- effect of improving cognitive function and memory (T-maze performance): high effect of improving cognitive function and memory, compared to P2-2
- effect of improving cognitive function and memory in the early stage of administration: high activity of improving cognitive function and memory in an early stage, compared to P2-2

Substance: Ile-Gly-Val-Ala-Tyr (IGVAY; printed: Ile-Gly-Val-Ala-Tyr) [Peptide F2]
- effect of improving cognitive function and memory (T-maze performance): high effect of improving cognitive function and memory, compared to P2-2
- effect of improving cognitive function and memory in the early stage of administration: high activity of improving cognitive function and memory in an early stage, compared to P2-2

Substance: Tyr-Gly-Ala-Ala (YGAA; printed: Tyr-Gly-Ala-Ala) [Peptide P1-3]
- effect of improving cognitive function and memory (T-maze performance): increased effect of improving cognitive function and memory

Substance: Tyr-Gly-Gly-Ala (YGGA; printed: Tyr-Gly-Gly-Ala) [Peptide P1-2]
- effect of improving cognitive function and memory (T-maze performance): increased effect of improving cognitive function and memory

Substance: Tyr-Gly-Gly-Tyr (YGGY; printed: Tyr-Gly-Gly-Tyr) [Peptide P4-2]
- effect of improving cognitive function and memory (T-maze performance): increased effect of improving cognitive function and memory

Substance: Tyr-Gly-Ile-Ala (YGIA; printed: Tyr-Gly-Ile-Ala) [Peptide P1-6]
- effect of improving cognitive function and memory (T-maze performance): increased effect of improving cognitive function and memory
- effect of improving cognitive function and memory in the early stage of administration: significantly increased effect of improving cognitive function and memory in the early stage of administration

Substance: Tyr-Gly-Val-Ile (YGVI; printed: Tyr-Gly-Val-Ile) [Peptide P1-5]
- effect of improving cognitive function and memory (T-maze performance): increased effect of improving cognitive function and memory

Substance: YGGYGI [Peptide P5-1]
- effect of improving cognitive function and memory (T-maze performance): clearly better effect of improving cognitive function and memory than P4-2
- effect of improving cognitive function and memory in the early stage of administration: excellent activity of improving cognitive function and memory in the early stage

From patent US12264204B2, “Peptide for improving memory and preventing or alleviating cognitive dysfunction, composition comprising the same, and method for producing the same” (NATURESENSE CO., LTD., priority 2019, dated 2025)
